Results on 22 compounds are retold here after paper PMC10425983 (ACS Infectious Diseases, 2023).

Data set [1] can be described thus: Rat hepatocyte intrinsic clearance. The conditions noted are these: for hepatocyte CLint: rat, rat hepatocytes. It counts as in vitro ADME.
Data set [2] deals with L. infantum (MHOM/MA(BE)/67/ITMAP263) amastigotes. In words: L. infantum intramacrophage amastigote assay. It counts as cell-based, Leishmania infantum. As to conditions: for EC50: Leishmania infantum, 120 h, read-out: L.inf pEC50 (converted); for SI: ratio CC50 μM (PMM)/EC50 μM (L.inf).
Data set [3] concerns primary peritoneal mouse macrophages (PMM). Put plainly: Cytotoxicity toward primary peritoneal mouse macrophages. It counts as cell-based. As to conditions: primary mouse macrophages; highest in-test concentration 64 μM.
Data set [4] in a line: Thermodynamic aqueous solubility. It counts as physicochemical.
A short description of data set [5]: Human liver microsome intrinsic clearance. It counts as in vitro ADME. As to conditions: for microsomal CLint at 3 µM: human, human liver microsomes, pH 7.4, HLM clint. Background: Liver microsomes are a subcellular fraction often used to study metabolism.
The nature of data set [6]: Cytotoxicity toward primary peritoneal mouse macrophages. It counts as cell-based. As to conditions: Swiss, mouse, primary peritoneal mouse macrophages (PMM), PMM pCC50, primary mouse macrophages; highest in-test concentration 64 μM.
Data set [7] in a line: Free plasma concentration. It counts as in vitro ADME. The conditions noted are these: free fraction in plasma.

As for `Fc1ccc(Nc2c(-c3ccccn3)nc3ccccn23)cc1` [Compound 3a, N-(4-Fluorophenyl)-2-(pyridin-2-yl)imidazo[1,2-a]pyridin-3-amine], the hepatocyte CLint (commonly a measure of how fast metabolising enzymes remove a compound, apart from limits set by blood flow) in data set [1] is over 300 µL/min/1e6 cells. Moreover, in data set [2], the EC50 was 3.98 µM and the SI was determined as 16. Besides, the “PMM pCC50” value in data set [3] is listed as under 4.2. Also, the aq. sol. in data set [4] stood at 8 µM. For the same compound, the microsomal CLint (usually a measure of how fast metabolising enzymes remove a compound, apart from limits set by blood flow) at 3 µM in data set [5] turned out to be 137 µL/min/mg.
`Fc1ccc(Nc2c(-c3ccccn3)nc3cccc(F)n23)cc1` [Compound 3b, 5-Fluoro-N-(4-fluorophenyl)-2-(pyridin-2-yl)imidazo[1,2-a]pyridin-3-amine] had a hepatocyte CLint in data set [1] of 190 µL/min/1e6 cells. Besides, in data set [2], the EC50 is 7.94 µM and the SI stood at 8. The CC50 (commonly the concentration at which the toxic effect on the cells reaches its halfway point) at 5 days in data set [6] is over 63.1 µM. The compound further registered an aq. sol. in data set [4] of 26 µM. Besides, the microsomal CLint at 3 µM in data set [5] came out at 60 µL/min/mg.
As to `COc1cccc2nc(-c3ccccn3)c(Nc3ccc(F)cc3)n12` [Compound 3c, N-(4-Fluorophenyl)-5-methoxy-2-(pyridin-2-yl)imidazo[1,2-a]pyridin-3-amine], the intrinsic metabolic clearance (hepatocyte CLint) in data set [1] was 30 µL/min/1e6 cells. Moreover, in data set [2], the EC50 is 7.94 µM and the SI stood at 1. The compound further had a CC50 at 5 days in data set [6] of 7.94 µM. The aq. sol. in data set [4] is 62 µM. Besides, the microsomal CLint at 3 µM in data set [5] came out at 28 µL/min/mg.
Take `Fc1ccc(Nc2c(-c3ccccn3)nc3cccnn23)cc1` [Compound 3d, N-(4-Fluorophenyl)-2-(pyridin-2-yl)imidazo[1,2-b]pyridazin-3-amine]: in data set [1], the hepatocyte CLint was over 300 µL/min/1e6 cells. Moreover, in data set [2], the EC50 was 15.8 µM and the SI was 2. Also, the CC50 at 5 days in data set [6] is 31.6 µM. Besides, the aq. sol. in data set [4] was 68 µM. The microsomal CLint at 3 µM in data set [5] was found to be 212 µL/min/mg.
`Fc1ccc(Nc2c(-c3ccccn3)nc3ccc(F)cn23)cc1` [Compound 3e, 6-Fluoro-N-(4-fluorophenyl)-2-(pyridin-2-yl)imidazo[1,2-a]pyridin-3-amine] showed a hepatocyte CLint in data set [1] of over 300 µL/min/1e6 cells. In data set [2], the EC50 is 7.94 µM and the SI was found to be 6. The midpoint of cytotoxicity in data set [6], the CC50 at 5 days, lay at 50.1 µM. Besides, in data set [4], the aq. sol. was 25 µM. Further, the microsomal CLint at 3 µM in data set [5] was over 300 µL/min/mg.
Regarding `COc1ccc2nc(-c3ccccn3)c(Nc3ccc(F)cc3)n2c1` [Compound 3f, N-(4-Fluorophenyl)-6-methoxy-2-(pyridin-2-yl)imidazo[1,2-a]pyridin-3-amine], in data set [2], the EC50 is 2 µM and the SI stood at 16. In data set [6], this compound showed a CC50 at 5 days of 31.6 µM.
As to `Fc1ccc(Nc2c(-c3ccccn3)nc3ccncn23)cc1` [Compound 3g, N-(4-Fluorophenyl)-2-(pyridin-2-yl)imidazo[1,2-c]pyrimidin-3-amine], in data set [2], the EC50 is 50.1 µM and the SI was 1. In addition, the CC50 at 5 days in data set [6] is over 63.1 µM. Moreover, the aq. sol. in data set [4] was 64 µM.
On to `Fc1ccc(Nc2c(-c3ccccn3)nc3cc(F)ccn23)cc1` [Compound 3h, 7-Fluoro-N-(4-fluorophenyl)-2-(pyridin-2-yl)imidazo[1,2-a]pyridin-3-amine], for which the hepatocyte CLint in data set [1] was 146 µL/min/1e6 cells. Further, in data set [2], the EC50 was 25.1 µM and the SI came out at 3. The CC50 at 5 days in data set [6] is over 63.1 µM. The compound also showed an aq. sol. in data set [4] of 0.1 µM. In data set [5], this compound returned a microsomal CLint at 3 µM of over 300 µL/min/mg.
As to `Fc1ccc(Nc2c(-c3ccccn3)nc3cnccn23)cc1` [Compound 3j, N-(4-Fluorophenyl)-2-(pyridin-2-yl)imidazo[1,2-a]pyrazin-3-amine], the hepatocyte CLint in data set [1] turned out to be 64.2 µL/min/1e6 cells. Besides, in data set [2], the EC50 is over 63.1 µM and the SI is given as 1. In data set [6], this compound came in with a CC50 at 5 days of over 63.1 µM. Moreover, the aq. sol. in data set [4] is 61 µM. This compound gave a microsomal CLint at 3 µM in data set [5] of 202 µL/min/mg.
On to `Fc1ccc(Nc2c(-c3ccccn3)nc3c(F)cccn23)cc1` [Compound 3k, 8-Fluoro-N-(4-fluorophenyl)-2-(pyridin-2-yl)imidazo[1,2-a]pyridin-3-amine], for which, in data set [1], the hepatocyte CLint was found to be 101 µL/min/1e6 cells. In data set [2], the EC50 is 39.8 µM and the SI was found to be 2. The CC50 at 5 days in data set [6] is over 63.1 µM. The compound also returned an aq. sol. in data set [4] of 12 µM. Moreover, the microsomal CLint at 3 µM in data set [5] stood at 220 µL/min/mg.
On to `COc1cccn2c(Nc3ccc(F)cc3)c(-c3ccccn3)nc12` [Compound 3l, N-(4-Fluorophenyl)-8-methoxy-2-(pyridin-2-yl)imidazo[1,2-a]pyridin-3-amine], for which, in data set [1], the hepatocyte CLint was found to be 29 µL/min/1e6 cells. For the same compound, in data set [2], the EC50 was 7.94 µM and the SI amounted to 8. For the same compound, the CC50 at 5 days in data set [6] was over 63.1 µM. In data set [4], this compound had an aq. sol. of 2 µM. Moreover, the microsomal CLint at 3 µM in data set [5] was 143 µL/min/mg.
With `Fc1ccc(Nc2c(-c3ccccn3)nc3ncccn23)cc1` [Compound 3m, N-(4-Fluorophenyl)-2-(pyridin-2-yl)imidazo[1,2-a]pyrimidin-3-amine], in data set [1], the hepatocyte CLint came out at 64.8 µL/min/1e6 cells. Also, in data set [2], the EC50 was 50.1 µM and the SI is 1. For the same compound, the CC50 at 5 days in data set [6] is over 63.1 µM. In data set [4], the aq. sol. was determined as 180 µM. The compound also showed a microsomal CLint at 3 µM in data set [5] of 42.4 µL/min/mg.
Compound `CSc1ccc2nc(-c3ccccn3)c(Nc3ccc(F)cc3)n2c1` [Compound 3n, N-(4-Fluorophenyl)-6-(methylsulfanyl)-2-(pyridin-2-yl)imidazo[1,2-a]pyridin-3-amine] gave a hepatocyte CLint in data set [1] of over 300 µL/min/1e6 cells. For the same compound, in data set [2], the EC50 is 7.94 µM and the SI is on record as 1. In data set [6], this compound showed a CC50 at 5 days of 7.94 µM. The compound further had an aq. sol. in data set [4] of 0.5 µM. Moreover, the microsomal CLint at 3 µM in data set [5] came out at 247 µL/min/mg.
For the compound `CS(=O)(=O)c1ccc2nc(-c3ccccn3)c(Nc3ccc(F)cc3)n2c1` [Compound 3o, N-(4-Fluorophenyl)-6-methanesulfonyl-2-(pyridin-2-yl)imidazo[1,2-a]pyridin-3-amine], in data set [1], the intrinsic clearance (hepatocyte CLint) was over 300 µL/min/1e6 cells. Besides, in data set [2], the EC50 is 31.6 µM and the SI is 1. This compound showed a CC50 at 5 days in data set [6] of 31.6 µM. The same compound yielded an aq. sol. in data set [4] of 5 µM.
Turning to `Fc1ccc(Nc2c(-c3ccccn3)nc3ccc(-c4cnoc4)cn23)cc1` [Compound 3q, N-(4-Fluorophenyl)-6-(1,2-oxazol-4-yl)-2-(pyridin-2-yl)imidazo[1,2-a]pyridin-3-amine], the hepatocyte CLint in data set [1] is 128 µL/min/1e6 cells. For the same compound, in data set [2], the EC50 is 25.1 µM and the SI is listed as 3. Moreover, the CC50 at 5 days in data set [6] was over 63.1 µM. Further, the aq. sol. in data set [4] is 3 µM. Also, in data set [5], the microsomal CLint at 3 µM worked out at 75 µL/min/mg.
Compound `Fc1ccc(Nc2c(-c3ccccn3)nc3sccn23)cc1` [Compound 3r, N-(4-Fluorophenyl)-6-(pyridin-2-yl)imidazo[2,1-b][1,3]thiazol-5-amine] showed a hepatocyte CLint in data set [1] of over 300 µL/min/1e6 cells. In data set [2], the EC50 was 7.94 µM and the SI is 4. In data set [6], this compound had a CC50 at 5 days of 31.6 µM. This compound had an aq. sol. in data set [4] of 76 µM. Also, the microsomal CLint at 3 µM in data set [5] was 270 µL/min/mg.
`COc1ccc2nc(-c3ccccn3)c(N(C)c3ccc(F)cc3)n2c1` [Compound 4n, N-(4-Fluorophenyl)-6-methoxy-N-methyl-2-(pyridin-2-yl)imidazo[1,2-a]pyridin-3-amine]: in data set [7], the free plasma concentration turned out to be 2%.
`COc1ccn2c(N)c(-c3ccccn3)nc2c1` [Compound 7b, 7-Methoxy-2-(pyridin-2-yl)imidazo[1,2-a]pyridin-3-amine]: in data set [1], the hepatocyte CLint stood at 7.1 µL/min/1e6 cells. Besides, in data set [2], the EC50 is 31.6 µM and the SI is 2. In data set [6], the CC50 at 5 days was over 63.1 µM. This compound showed an aq. sol. in data set [4] of 290 µM. Further, the microsomal CLint at 3 µM in data set [5] turned out to be 120 µL/min/mg.
`Fc1ccc(Nc2c(-c3ccccn3)nc3ccccn23)nc1` [Compound 8, 5-Fluoro-N-[2-(pyridin-2-yl)imidazo[1,2-a]pyridin-3-yl]pyridin-2-amine]: the “metabolic stability class in rat hepatocytes” value in data set [1] (clearance class in words) is listed as “moderate (5.1 ≤ moderate ≤27)”. In addition, the “metabolic stability class in human liver microsomes” value in data set [5] (clearance class in words) is “moderate (8.6 ≤ moderate ≤47)”.
`c1ccc(-c2cn3ccccc3n2)nc1` [Compound 11a, 2-(Pyridin-2-yl)imidazo[1,2-a]pyridine] displayed an intrinsic clearance (hepatocyte CLint) in data set [1] of 140 µL/min/1e6 cells. In data set [2], the EC50 is 50.1 µM and the SI worked out at 1. For the same compound, the CC50 at 5 days in data set [6] was over 63.1 µM. Further, the aq. sol. in data set [4] turned out to be 828 µM. In data set [5], this compound showed a microsomal CLint at 3 µM of 130 µL/min/mg.
`COc1ccn2cc(-c3ccccn3)nc2c1` [Compound 11b, 7-Methoxy-2-(pyridin-2-yl)imidazo[1,2-a]pyridine]: in data set [2], the EC50 was 25.1 µM and the SI is given as 3. The same compound returned a CC50 at 5 days in data set [6] of over 63.1 µM. The aq. sol. in data set [4] worked out at 723 µM. This compound also gave a microsomal CLint at 3 µM in data set [5] of over 300 µL/min/mg.
In the case of `COc1ccn2c(Cl)c(-c3ccccn3)nc2c1` [Compound 12, 3-Chloro-7-methoxy-2-(pyridin-2-yl)imidazo[1,2-a]pyridine], the hepatocyte CLint in data set [1] was found to be 17 µL/min/1e6 cells. In data set [2], the EC50 is 15.8 µM and the SI was found to be 2. In addition, the midpoint of cytotoxicity in data set [6], the CC50 at 5 days, lay at 31.6 µM. For the same compound, the aq. sol. in data set [4] turned out to be 562 µM. In data set [5], the microsomal CLint at 3 µM was over 300 µL/min/mg.
